Results as given in the NIST ThermoML archive (doi:10.1016/j.jct.2016.06.016).

Test: xn = mol fraction of the nth substance listed
Conditions: 100 kPa, Liquid; for viscosity: Concentric cylinders viscometry; for mass density: Vibrating tube method

CCOC(=O)CCC(=O)OCC [diethyl butanedioate] + CCCCCCO
Conditions | mass density, 308.15 K [kg/m3] | mass density, 313.15 K [kg/m3] | mass density, 318.15 K [kg/m3] | mass density, 323.15 K [kg/m3] | viscosity, 308.15 K [mPa·s] | viscosity, 313.15 K [mPa·s] | viscosity, 318.15 K [mPa·s] | viscosity, 323.15 K [mPa·s]
x1 = 0.0999 | 834.22 | 830.34 | 826.44 | 822.52 | 2.572 | 2.276 | 2.013 | 1.817
x1 = 0.2 | 859.52 | 855.43 | 851.33 | 847.2 | 2.193 | 1.961 | 1.748 | 1.584
x1 = 0.3001 | 883.49 | 879.22 | 874.93 | 870.62 | 1.98 | 1.783 | 1.598 | 1.458
x1 = 0.4 | 906.3 | 901.87 | 897.41 | 892.94 | 1.854 | 1.679 | 1.511 | 1.386
x1 = 0.4999 | 928.09 | 923.5 | 918.89 | 914.27 | 1.788 | 1.626 | 1.468 | 1.344
x1 = 0.6 | 948.84 | 944.11 | 939.37 | 934.62 | 1.759 | 1.604 | 1.452 | 1.337
x1 = 0.7002 | 968.87 | 964.01 | 959.15 | 954.28 | 1.77 | 1.617 | 1.467 | 1.353
x1 = 0.7999 | 987.97 | 983 | 978.02 | 973.05 | 1.816 | 1.659 | 1.506 | 1.391
x1 = 0.9 | 1006.42 | 1001.34 | 996.26 | 991.18 | 1.893 | 1.729 | 1.57 | 1.448
x1 = 1 | 1024.08 | 1018.9 | 1013.72 | 1008.55 | 2.008 | 1.821 | 1.66 | 1.523
